PMC6081956 (ChemMedChem, 2018)
Entries after “also recorded” stand apart in the source; their conditions may differ. Where two headings read alike, the source gives them in different places.

Key:
PXR-LBD-SRC1p [1] = molecular target: T1, PXR-LBD-SRC1p (Homo sapiens, UniProt O75469); test: Competitive isothermal titration calorimetry; format: binding; conditions: for ΔG°: from KD of competitive ITC
T1 sequence (O75469 with tags, fused parts or gaps limits assumed): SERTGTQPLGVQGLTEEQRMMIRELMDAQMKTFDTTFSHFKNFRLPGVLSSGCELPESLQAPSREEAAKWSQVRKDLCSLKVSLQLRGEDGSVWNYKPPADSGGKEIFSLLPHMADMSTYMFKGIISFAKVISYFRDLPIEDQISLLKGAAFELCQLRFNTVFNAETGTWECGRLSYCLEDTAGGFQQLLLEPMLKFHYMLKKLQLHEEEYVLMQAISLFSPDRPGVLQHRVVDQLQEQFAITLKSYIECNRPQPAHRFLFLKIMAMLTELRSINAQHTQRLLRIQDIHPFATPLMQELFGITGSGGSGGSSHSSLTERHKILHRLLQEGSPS

[2] = system: PXR target gene Cyp3a11 mRNA; test: Cyp3a11 mRNA expression; format: cell-based; conditions: PXR-humanized mouse hepatocytes, 10 µM, 72 h, normalized to GAPDH
PXR-LBD-SRC1p [3] = molecular target: T1, PXR-LBD-SRC1p; test: Isothermal titration calorimetry; format: binding; conditions: for -TΔS° / ΔH° / ΔG° / N value (stoichiometry, single-site binding model): direct ITC; for -TΔS° / ΔH°: 25°C; for ΔG°: from KD by ΔG° = -RTlnKD
[4] = 129 patients receiving 600 mg of EFV per day, cited from earlier work
[5] = system: PXR target gene Cyp3a11 mRNA; test: Cyp3a11 mRNA expression; format: cell-based; conditions: PXR-null mouse hepatocytes, 10 µM, 72 h
PXR-LBD = molecular target: T2, PXR-LBD (Homo sapiens, UniProt O75469); test: biochemical
T2 sequence (O75469 111-434): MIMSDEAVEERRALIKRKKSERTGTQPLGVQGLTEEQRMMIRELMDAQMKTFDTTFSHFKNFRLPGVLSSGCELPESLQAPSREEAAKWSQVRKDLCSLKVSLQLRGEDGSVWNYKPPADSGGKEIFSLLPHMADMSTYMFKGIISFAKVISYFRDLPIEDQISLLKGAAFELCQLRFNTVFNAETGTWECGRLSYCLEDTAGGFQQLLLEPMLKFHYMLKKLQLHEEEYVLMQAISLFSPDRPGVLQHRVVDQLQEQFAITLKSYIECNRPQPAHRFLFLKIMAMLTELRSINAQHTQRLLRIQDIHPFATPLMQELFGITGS

CYP3A4 mRNA = format: cell-based; conditions: 10 µM 8-OHEFV co-incubated with 2 µM RIF, 48 h, primary human hepatocytes, p=0.004

Row | SMILES | Kd (PXR-LBD-SRC1p [1]) | Kd (PXR-LBD-SRC1p [3]) | -TΔS° (PXR-LBD-SRC1p [3]) | ΔH° (PXR-LBD-SRC1p [3]) | ΔG° (PXR-LBD-SRC1p [3]) | ΔG° (PXR-LBD-SRC1p [1]) | further results
1 | Nc1ccc(Cl)cc1C(=O)C(F)(F)F [analog 10, 1-(2-amino-5-chlorophenyl)-2,2,2-trifluoroethan-1-one] | > 400 µM |  |  |  |  |  | Cyp3a11 mRNA levels, fold change from DMSO control [2]: no change in the Cyp3a11 mRNA levels
2 | O=C1Oc2ccc(Cl)cc2C(C#CC2CC2)(C(F)(F)F)O1 (stereo not shown) [analog 15, 6-chloro-4-(cyclopropylethynyl)-4-(trifluoromethyl)-4H-benzo[d][1,3]dioxin-2-one] |  | 10.9 ± 1.8 µM | −5.1 ±0.2 kcal/mol•K | -1.6 ± 0.2 kcal/mol | -6.8 ± 0.1 kcal/mol |  | 
3 | CCCC#CC1(C(F)(F)F)OC(=O)Nc2ccc(Cl)cc21 (stereo not shown) [analog 4, 6-chloro-4-(pent-1-yn-1-yl)-4-(trifluoromethyl)-1,4-dihydro-2H-benzo[d][1,3]oxazin-2-one] |  | 78.7 ± 15.3 µM | −4.5 ±0.2 kcal/mol•K | -1.1 ± 0.1 kcal/mol | -5.6 ± 0.1 kcal/mol |  | 
4 | COc1ccc(CNc2ccc(Cl)cc2[C@@](O)(C#CC2CC2)C(F)(F)F)cc1 [analog 6, (S)-2-(5-chloro-2-((4-methoxybenzyl)amino)phenyl)-4-cyclopropyl-1,1,1-trifluorobut-3-yn-2-ol] | 9.5 ± 2.7 µM |  |  |  |  | -6.8 ± 0.2 kcal/mol | 
5 | COc1ccc(CNc2ccc(Cl)cc2[C@](O)(C#CC2CC2)C(F)(F)F)cc1 [analog 5, (R)-2-(5-chloro-2-((4-methoxybenzyl)amino)phenyl)-4-cyclopropyl-1,1,1-trifluorobut-3-yn-2-ol] | 14.5 ± 4.3 µM |  |  |  |  | -6.6 ± 0.1 kcal/mol | 
6 | O=C1Nc2ccc(Cl)cc2[C@@](C#CC2CC2)(C(F)(F)F)O1 [EFV, (S)-6-chloro-4-(cyclopropylethynyl)-4-(trifluoromethyl)-1,4-dihydro-2H-benzo[d][1,3]oxazin-2-one, reference compound] |  |  | −4.9 ±0.4 kcal/mol•K | -2.1 ± 0.3 kcal/mol | -6.9 ± 0.2 kcal/mol |  | N value (stoichiometry, single-site binding model) (PXR-LBD-SRC1p [3]): approximately 1.0; plasma concentration ([4]; at 4 weeks ref 7): 10.61 ± 1.11 µM; plasma concentration ([4]; at 16 weeks ref 7): 10.33 ± 0.98 µM; Cyp3a11 mRNA abundance [5]: no impact on Cyp3a11 mRNA abundance
7 | COc1ccc(C2Nc3ccc(Cl)cc3[C@@](C#CC3CC3)(C(F)(F)F)O2)cc1 (stereo partly drawn) [analog 9, (S)-6-chloro-4-(cyclopropylethynyl)-2-(4-methoxyphenyl)-4-(trifluoromethyl)-1,4-dihydro-2H-benzo[d][1,3]oxazine] |  |  |  |  |  |  | IC50 (PXR-LBD): 39.3 ± 24.1 µM
8 | COc1ccc(C(=O)Nc2ccc(Cl)cc2C(O)(C#CC2CC2)C(F)(F)F)cc1 (stereo not shown) [analog 7, N-(4-chloro-2-(4-cyclopropyl-1,1,1-trifluoro-2-hydroxybut-3-yn-2-yl)phenyl)-4-methoxybenzamide] | 4.2 ± 1.1 µM |  |  |  |  | -7.3 ± 0.2 kcal/mol | Cyp3a11 mRNA levels, fold change from DMSO control [2]: 37 fold
9 | FC(F)(F)[C@@]1(C#CC2CC2)OCNc2ccc(Cl)cc21 [analog 8, (S)-6-chloro-4-(cyclopropylethynyl)-4-(trifluoromethyl)-1,4-dihydro-2H-benzo[d][1,3]oxazine] |  | 14.9 ± 2.6 µM | −4.8 ±0.3 kcal/mol•K | -1.8 ± 0.1 kcal/mol | -6.6 ± 0.1 kcal/mol |  | 
10 | O=C1Nc2c(O)cc(Cl)cc2[C@@](C#CC2CC2)(C(F)(F)F)O1 [8-OHEFV, (S)-6-chloro-4-(cyclopropylethynyl)-8-hydroxy-4-(trifluoromethyl)-1,4-dihydro-2H-benzo[d][1,3]oxazin-2-one] |  | 7.9 ± 7.7 µM | −3.8 ± 1.5 kcal/mol•K | -3.1 ± 1.2 kcal/mol | -6.9 ± 0.3 kcal/mol |  | N value (stoichiometry, single-site binding model) (PXR-LBD-SRC1p [3]): approximately 1.0; plasma concentration ([4]; at 4 weeks ref 7): 6.51 ± 0.87 µM; plasma concentration ([4]; at 16 weeks ref 7): 6.84 ± 1.06 µM; decrease in CYP3A4 mRNA induction as compared to 2 µM RIF alone (CYP3A4 mRNA): ~20%; Cyp3a11 mRNA levels, fold change from DMSO control [2]: did not result in modulation of Cyp3a11 mRNA levels; also recorded: did not result in a change in Cyp3a11 mRNA levels
11 | O=C1Cc2ccc(Cl)cc2C(C#CC2CC2)(C(F)(F)F)O1 (stereo not shown) [analog 16, 7-chloro-1-(cyclopropylethynyl)-1-(trifluoromethyl)isochroman-3-one] | 10.5 ± 1.5 µM |  |  |  |  | -6.8 ± 0.2 kcal/mol | 
